The text below walks through data of patent US7595074B2, “Polymeric antioxidants” (University of Massachusetts Lowell, priority 2002, dated 2009).

Where two headings read alike, the source gives them in different places.

Data set [1] is described as follows: bleaching of a beta-carotene/linoleate model system (antioxidant activity). Conditions: for % Antioxidant Activity: compounds of each step of the Example 8 scheme, procedure of Food Chemistry 73:285-290 (2001). It counts as biochemical. Further details: % Antioxidant Activity of Monomer / % Antioxidant Activity: concentration or dose not given beside the values. Here is the method: The antioxidant activity of monomers and enzymatically-prepared polymeric antioxidants was compared by measuring the bleaching of a beta-carotene system. In the model system, beta-carotene undergoes rapid discoloration in the absence of an antioxidant. The assay and measurements were conducted according to the procedure described in Jayaprakasha, G. K., et al. Food Chemistry 73: 285-290 (2001) and Hidalgo, M. E., et al. Phytochemistry 37: 1585-1587 (1994), the contents of which are incorporated herein by reference. Briefly, beta-carotene (0.2 mg), linoleic acid (20 mg), and 200 mg of Tween-40 (polyoxyethylene sorbitan monopalmitate) were dissolved in 0.5 mL of chloroform. The chloroform was removed under vacuum and the resulting mixture was immediately diluted with 10 mL of distilled water and mixed well for 1-2 minutes. The resulting emulsion was further made up to 50 mL with oxygenated water. Aliquots (4 mL) of the emulsion were mixed with 0.2 mL of test sample (monomer or polymer) in dimethylformamide (DMF), so that there were 100 ppm of monomer or polymer present in the aliquot. A control was prepared by mixing 0.2 mL of DMF with 4 mL of the above emulsion. The samples were incubated at 50° C. The absorbance of all samples at 470 nm was taken initially (t=0) and continued up to 180 minutes at 15 minute intervals. Antioxidant activity is calculated based on the formula: Antioxidant Activity=100(1−(Ao−At)/(A^1o−A^1t)), • Ao=absorbance of the test sample at zero time, • A^1o=absorbance of the control at zero time, • At=absorbance of the test sample at time t (180 min), and • A^1t=absorbance of the control at time t (180 min).
The antioxidant activity of several other antioxidant monomer/polymer pairs were determined by the procedure described in Example 3.
The antioxidant activity of compounds formed in each step of the scheme shown above were measured according to the procedure published in Food Chemistry 73:285-290 (2001).

Data set [2] in a line: thermogravimetric analysis (TGA). Conditions: thermal stability, FIG. 4. It counts as physicochemical.
Data set [3] can be described thus: oil stability index of cooking oil heated to frying temperature. Here is the method: (§1) The oils were heated to frying temperature (190° C.) and their oil stability index was measured. The oil stability index (American Oil Chemists' Society Cd 126-92) measures the amount of time before the oil begins to rapidly oxidize. A greater length of time indicates an oil with a greater antioxidant capacity, which likely corresponds to a longer potential shelf life.

Assay in data set [4]: as above
On the procedure: as §1
This is another data set of the same source.

The conditions of data set [5]: quoted for comparison; cited from earlier work.
Data set [6] deals with Sprague-Dawley albino rats. Conditions: rat, in vivo. On the procedure:
A study was conducted based upon the standards of OECD Guidelines for Testing of Chemicals, OECD 423. Ten Sprague-Dawley albino rats were administered with 2000 mg/kg body weight poly(TBHQ) as a single dose via gastric gavage. After administration, the animals were returned to their cages and observed for signs of toxicity for up to 14 days. Body weights were determined prior to dosing and on the day of death or prior to terminal sacrifice. A second study was performed using three female rats with 500 mg/kg body weight of poly(TBHQ).

[7] abbreviates: monomer, 100 ppm, 50° C., 180 min, Antioxidant Activity=100(1−(Ao−At)/(A1o−A1t)).
Where [8] appears, read: monomer, procedure of Example 3.

In the case of `COc1ccc(O)cc1C(C)(C)C` [2-tert-butyl-4-hydroxyanisole], the “Monomer Activity” value in data set [1] (setting [7]) stood at 44.24. Besides, in data set [2], the “temperature up to which there was about 15% mass loss (TGA)” value was “about 125 °C”.
Take `OCc1cccc(O)c1` [3-hydroxybenzyl alcohol]: in data set [1] (setting [7]), the “Monomer Activity” value was 1.0. Further, the “% Antioxidant Activity of Monomer” value in data set [1] (setting [8]) stood at 1.0%.
As for `Oc1ccc(N=Nc2ccccc2)cc1` [4-azophenylphenol], in data set [1] (setting [7]), the “Monomer Activity” value was 5.4. Besides, the “% Antioxidant Activity of Monomer” value in data set [1] (setting [8]) worked out at 5.4%.
In the case of `CC(C)(C)c1cc(O)ccc1O` [TBHQ, tert-butyl-hydroquinone], the “% Antioxidant Activity” value in data set [1] is listed as 6.72%. Moreover, the “oil stability index (time before the oil begins to rapidly oxidize)” value (“oil stability index” below) amounted to 10.8 h in data set [3] (Canola oil, 190° C., equal concentration of phenol moieties) and 6.6 h in data set [4] (Corn oil, 190° C., equal concentration of phenol moieties).
As for `CC(=O)Oc1ccc(OC(C)=O)c(C(C)(C)C)c1` [b], the “% Antioxidant Activity” value in data set [1] came out at 2.45%.
The same measure, in the same setting: the figure for `CC(=O)Oc1ccc(O)cc1C(C)(C)C` [c, 4-acetyloxy-3-tert-butylphenol] is 7.9%.
With `Oc1ccccc1` [phenol], in data set [1], the “% Antioxidant Activity of Monomer” value stood at 2.1% and the “Monomer Activity” value came out at 2.1.
`[Cl-].[Na+]` [sodium chloride]: the “oral LD50” value in data set [5] was “about 3000 mg/kg”.
With “Poly(tert-butyl-hydroquinone) [Poly(TBHQ)]”, the “oil stability index” value in data set [3] came out at 19.2 h. Further, the “oil stability index” value in data set [4] was found to be 9.0 h. Further, in data set [6], the “female rats that died prior to completion of the study” value is “Three of the five”, the “gross necropsy of surviving animals” value was “None of the surviving animals showed abnormal signs”, the “necropsy finding in animals that did not survive 14 days” value is recorded as “the intestines were inflamed” and the overall toxicity entry was “relatively low toxicity to rats”. The survival entry in data set [6] is reported as “survived the duration of the study”. The “oral LD50” value in data set [6] (po) was 500 to 2000 mg/kg.
